{
  "source": "paper PMC5218480",
  "about": "(PLoS ONE, 2017)",
  "test_system": "MV-4-11 cells",
  "test": "Gene expression microarray analysis (Affymetrix PrimeView) and GSEA",
  "assay_type": "cell-based, human",
  "design": "RFU PODN (11730768_x_at) / Fold change /veh PODN (11730768_x_at) / RFU LINC00158 (11744669_a_at) / Fold change /veh LINC00158 (11744669_a_at) / RFU DUSP10 (11751237_a_at) / Fold change /veh DUSP10 (11751237_a_at) / RFU ID3 (11757404_x_at) / Fold change /veh ID3 (11757404_x_at) / RFU PLEKHG5 (11737974_s_at) / Fold change /veh PLEKHG5 (11737974_s_at) / RFU LRRC4B (11730491_at) / Fold change /veh LRRC4B (11730491_at) / RFU GIMAP4 (11747438_a_at) / Fold change /veh GIMAP4 (11747438_a_at) / RFU KRT8 (11758183_x_at) / Fold change /veh KRT8 (11758183_x_at) / RFU CNN1 (11734310_a_at) / Fold change /veh CNN1 (11734310_a_at) / RFU VPS37D (11726825_at) / Fold change /veh VPS37D (11726825_at) / RFU C10orf10 (11716522_x_at) / Fold change /veh C10orf10 (11716522_x_at) / RFU KIR2DL2 /// KIR2DL4 /// KIR2DL5A /// KIR2DL5B /// KIR2DS1 /// KIR2DS2 /// KIR2DS3 /// KIR2DS4 /// KIR3DL3 /// KIR3DL3 /// KIR3DS1 (11738374_at) / Fold change /veh KIR2DL2 /// KIR2DL4 /// KIR2DL5A /// KIR2DL5B /// KIR2DS1 /// KIR2DS2 /// KIR2DS3 /// KIR2DS4 /// KIR3DL3 /// KIR3DL3 /// KIR3DS1 (11738374_at) / RFU C1QL1 (11718748_at) / Fold change /veh C1QL1 (11718748_at) / RFU TMPRSS4 (11747572_a_at) / Fold change /veh TMPRSS4 (11747572_a_at) / RFU HAMP (11756126_x_at) / Fold change /veh HAMP (11756126_x_at) / RFU RNFT2 (11725882_a_at) / Fold change /veh RNFT2 (11725882_a_at) / RFU NR4A2 (11747474_a_at) / Fold change /veh NR4A2 (11747474_a_at) / RFU ABCC12 (11746883_a_at) / Fold change /veh ABCC12 (11746883_a_at) / RFU TMEM136 (11760407_x_at) / Fold change /veh TMEM136 (11760407_x_at) / RFU CLDN22 /// WWC2 (11732394_at) / Fold change /veh CLDN22 /// WWC2 (11732394_at) / RFU HLA-DPB1 (11760878_x_at) / Fold change /veh HLA-DPB1 (11760878_x_at) / RFU SPINT1 (11716480_a_at) / Fold change /veh SPINT1 (11716480_a_at) / RFU GAP43 (11754022_s_at) / Fold change /veh GAP43 (11754022_s_at) / RFU A4GNT (11735810_at) / Fold change /veh A4GNT (11735810_at) / RFU PRB3 (11715151_x_at) / Fold change /veh PRB3 (11715151_x_at) / RFU TUBB4B (11761932_at) / Fold change /veh TUBB4B (11761932_at) / RFU CAPN14 (11732068_a_at) / Fold change /veh CAPN14 (11732068_a_at) / RFU TMCC2 (11721928_a_at) / Fold change /veh TMCC2 (11721928_a_at) / RFU IRGQ (11745062_a_at) / Fold change /veh IRGQ (11745062_a_at) / RFU FAM174B (11720279_a_at) / Fold change /veh FAM174B (11720279_a_at) / RFU TMPRSS4 (11748680_a_at) / Fold change /veh TMPRSS4 (11748680_a_at) / RFU FAM212B (11763350_a_at) / Fold change /veh FAM212B (11763350_a_at) / RFU PLEKHG5 (11743358_a_at) / Fold change /veh PLEKHG5 (11743358_a_at) / RFU ZSCAN30 (11745921_a_at) / Fold change /veh ZSCAN30 (11745921_a_at) / RFU CMKLR1 (11741424_a_at) / Fold change /veh CMKLR1 (11741424_a_at) / RFU LOC101060620 /// MAPK8IP1 (11723275_at) / Fold change /veh LOC101060620 /// MAPK8IP1 (11723275_at) / RFU SPTSSB (11747773_x_at) / Fold change /veh SPTSSB (11747773_x_at) / RFU PRSS12 (11739890_at) / Fold change /veh PRSS12 (11739890_at) / RFU BIN1 (11741810_x_at) / Fold change /veh BIN1 (11741810_x_at) / RFU WNT11 (11732464_a_at) / Fold change /veh WNT11 (11732464_a_at) / RFU C10orf10 (11716521_a_at) / Fold change /veh C10orf10 (11716521_a_at) / RFU C5orf56 (11738089_at) / Fold change /veh C5orf56 (11738089_at) / RFU CYB561 (11721691_x_at) / Fold change /veh CYB561 (11721691_x_at) / RFU ANKRD19P (11752326_a_at) / Fold change /veh ANKRD19P (11752326_a_at) / RFU OR2T12 /// OR2T33 /// OR2T8 (11738714_s_at) / Fold change /veh OR2T12 /// OR2T33 /// OR2T8 (11738714_s_at) / RFU VCAN (11748164_a_at) / Fold change /veh VCAN (11748164_a_at) / RFU JSRP1 (11732532_at) / Fold change /veh JSRP1 (11732532_at) / RFU KRTAP10-11 (11738290_x_at) / Fold change /veh KRTAP10-11 (11738290_x_at) / RFU MYO3A (11730013_a_at) / Fold change /veh MYO3A (11730013_a_at) / RFU EBF3 (11725865_a_at) / Fold change /veh EBF3 (11725865_a_at) / RFU CAMK2N1 (11719241_x_at) / Fold change /veh CAMK2N1 (11719241_x_at) / RFU C5orf56 (11738088_a_at) / Fold change /veh C5orf56 (11738088_a_at) / RFU OLFML3 (11715873_a_at) / Fold change /veh OLFML3 (11715873_a_at) / RFU LOC100653217 /// NTM (11731650_a_at) / Fold change /veh LOC100653217 /// NTM (11731650_a_at) / RFU MAPK11 (11762145_a_at) / Fold change /veh MAPK11 (11762145_a_at) / RFU FIZ1 (11724087_x_at) / Fold change /veh FIZ1 (11724087_x_at) / RFU OASL (11726364_x_at) / Fold change /veh OASL (11726364_x_at) / RFU SOX15 (11748057_x_at) / Fold change /veh SOX15 (11748057_x_at) / RFU CD79A (11719716_a_at) / Fold change /veh CD79A (11719716_a_at) / RFU HIST1H1D (11736915_at) / Fold change /veh HIST1H1D (11736915_at) / RFU CASKIN2 (11723855_a_at) / Fold change /veh CASKIN2 (11723855_a_at) / RFU LOC730098 (11760151_x_at) / Fold change /veh LOC730098 (11760151_x_at) / RFU OR4N2 (11742367_at) / Fold change /veh OR4N2 (11742367_at) / RFU PRRT2 (11749266_a_at) / Fold change /veh PRRT2 (11749266_a_at) / RFU SNX32 (11753110_a_at) / Fold change /veh SNX32 (11753110_a_at) / RFU CDHR5 (11726645_a_at) / Fold change /veh CDHR5 (11726645_a_at) / RFU RCAN1 (11760418_a_at) / Fold change /veh RCAN1 (11760418_a_at) / RFU FAM167A (11723789_a_at) / Fold change /veh FAM167A (11723789_a_at) / RFU FAM26E (11764081_at) / Fold change /veh FAM26E (11764081_at) / RFU ISYNA1 (11749810_s_at) / Fold change /veh ISYNA1 (11749810_s_at) / RFU ACY1 (11761880_at) / Fold change /veh ACY1 (11761880_at) / RFU 11764098_at / Fold change /veh 11764098_at / RFU SAMD14 (11745864_x_at) / Fold change /veh SAMD14 (11745864_x_at) / RFU NPB (11741838_a_at) / Fold change /veh NPB (11741838_a_at) / RFU TMPRSS6 (11731388_a_at) / Fold change /veh TMPRSS6 (11731388_a_at) / RFU KRTAP10-2 (11738614_at) / Fold change /veh KRTAP10-2 (11738614_at) / RFU ARHGAP8 /// PRR5-ARHGAP8 (11727945_x_at) / Fold change /veh ARHGAP8 /// PRR5-ARHGAP8 (11727945_x_at) / RFU KRTAP5-7 /// NADSYN1 (11734609_at) / Fold change /veh KRTAP5-7 /// NADSYN1 (11734609_at) / RFU RASL12 (11751679_a_at) / Fold change /veh RASL12 (11751679_a_at) / RFU CDKN2B (11736163_a_at) / Fold change /veh CDKN2B (11736163_a_at) / RFU PRF1 (11729649_at) / Fold change /veh PRF1 (11729649_at) / RFU, ZNF638 /// ZNF638-IT1 / Fold change vs veh, ZNF638 /// ZNF638-IT1 / RFU, PANK3 / Fold change vs veh, PANK3 / RFU, SH3YL1 / Fold change vs veh, SH3YL1 / RFU, ZEB2 / Fold change vs veh, ZEB2 / RFU, NRIP1 / Fold change vs veh, NRIP1 / RFU, PTTG1IP / Fold change vs veh, PTTG1IP / RFU, CAPN2 / Fold change vs veh, CAPN2 / RFU, MED14 / Fold change vs veh, MED14 / RFU, SNORA58 / Fold change vs veh, SNORA58 / RFU, C1orf63 / Fold change vs veh, C1orf63 / RFU, LRRFIP1 / Fold change vs veh, LRRFIP1 / RFU, NDUFAF7 / Fold change vs veh, NDUFAF7 / RFU, SLC12A2 / Fold change vs veh, SLC12A2 / RFU, IBTK / Fold change vs veh, IBTK / RFU, ESF1 / Fold change vs veh, ESF1 / Fold change vs veh, TMEM50B / RFU, TAOK1 / Fold change vs veh, TAOK1 / RFU, ACBD3 / Fold change vs veh, ACBD3 / RFU, TMA16 / Fold change vs veh, TMA16 / RFU, RWDD3 / Fold change vs veh, RWDD3 / RFU, BCAT1 / Fold change vs veh, BCAT1 / RFU, EDEM3 / Fold change vs veh, EDEM3 / RFU, TMEM33 / Fold change vs veh, TMEM33 / RFU, WDR75 / Fold change vs veh, WDR75 / RFU, AHCTF1 / Fold change vs veh, AHCTF1 / RFU, TFRC / Fold change vs veh, TFRC / RFU, ZDHHC17 / Fold change vs veh, ZDHHC17 / RFU, NOM1 / Fold change vs veh, NOM1 / RFU, ARL8B / Fold change vs veh, ARL8B / RFU, ZBTB11 / Fold change vs veh, ZBTB11 / RFU, TAMM41 / Fold change vs veh, TAMM41 / RFU, KIAA1704 /// LOC100996395 / Fold change vs veh, KIAA1704 /// LOC100996395 / RFU, ING1 / Fold change vs veh, ING1 / RFU, TRMT61B / Fold change vs veh, TRMT61B / RFU, FUBP3 / Fold change vs veh, FUBP3 / RFU, TP53 / Fold change vs veh, TP53 / RFU, TNKS2 / Fold change vs veh, TNKS2 / RFU, ZFP14 / Fold change vs veh, ZFP14 / RFU, ACTR2 / Fold change vs veh, ACTR2 / RFU, PPP3R1 / Fold change vs veh, PPP3R1 / RFU, PIK3R1 / Fold change vs veh, PIK3R1 / RFU, HNRNPA1 / Fold change vs veh, HNRNPA1 / RFU, RNF170 / Fold change vs veh, RNF170 / RFU, ZNF28 / Fold change vs veh, ZNF28 / RFU, RNGTT / Fold change vs veh, RNGTT / RFU, OGT / Fold change vs veh, OGT / RFU, BRD1 / Fold change vs veh, BRD1 / RFU, MARS / Fold change vs veh, MARS / RFU, ZNF655 / Fold change vs veh, ZNF655 / RFU, FAHD1 / Fold change vs veh, FAHD1 / RFU, BDP1 / Fold change vs veh, BDP1 / RFU, LRRCC1 / Fold change vs veh, LRRCC1 / RFU, ARID1A / Fold change vs veh, ARID1A / RFU, ZNF146 / Fold change vs veh, ZNF146 / RFU, ZNF330 / Fold change vs veh, ZNF330 / RFU, GPN3 / Fold change vs veh, GPN3 / RFU, C9orf123 / Fold change vs veh, C9orf123 / RFU, N4BP2L2 / Fold change vs veh, N4BP2L2 / RFU, ARFIP1 / Fold change vs veh, ARFIP1 / RFU, FAM179B / Fold change vs veh, FAM179B / RFU, BCL10 / Fold change vs veh, BCL10 / RFU, UHRF1BP1L / Fold change vs veh, UHRF1BP1L / RFU, BET1 / Fold change vs veh, BET1 / RFU, CNOT2 / Fold change vs veh, CNOT2 / RFU, ZNF268 / Fold change vs veh, ZNF268 / Fold change vs veh, ZNF507 / RFU, DGCR2 / Fold change vs veh, DGCR2 / RFU, WDSUB1 / Fold change vs veh, WDSUB1 / Fold change vs veh, HSP90B1 /// MIR3652 / RFU, ADSS / Fold change vs veh, ADSS / RFU, GK / Fold change vs veh, GK / RFU, ZNF148 / Fold change vs veh, ZNF148 / RFU, TAF9 / Fold change vs veh, TAF9 / RFU, SLC1A5 / Fold change vs veh, SLC1A5 / RFU, SLMO2 / Fold change vs veh, SLMO2 / RFU, ABCC4 / Fold change vs veh, ABCC4 / RFU, LOC101060439 /// RAP1B / Fold change vs veh, LOC101060439 /// RAP1B / RFU, RFX7 / Fold change vs veh, RFX7 / RFU, GTPBP10 / Fold change vs veh, GTPBP10 / RFU, CNEP1R1 / Fold change vs veh, CNEP1R1 / RFU, BIVM-ERCC5 /// ERCC5 / Fold change vs veh, BIVM-ERCC5 /// ERCC5 / RFU, ILF3 / Fold change vs veh, ILF3 / RFU 11762660_at / Fold change /veh 11762660_at / RFU VCAN (11757783_s_at) / Fold change /veh VCAN (11757783_s_at) / RFU DDX43 (11728927_at) / Fold change /veh DDX43 (11728927_at) / RFU KRT8 (11758188_x_at) / Fold change /veh KRT8 (11758188_x_at) / RFU NKD1 (11759106_at) / Fold change /veh NKD1 (11759106_at) / RFU SRD5A1 (11742802_a_at) / Fold change /veh SRD5A1 (11742802_a_at) / RFU TPSAB1 /// TPSB2 (11721975_s_at) / Fold change /veh TPSAB1 /// TPSB2 (11721975_s_at) / RFU GSTM3 (11746129_a_at) / Fold change /veh GSTM3 (11746129_a_at) / RFU IL23R (11737362_x_at) / Fold change /veh IL23R (11737362_x_at) / RFU TMEM51 (11727254_a_at) / Fold change /veh TMEM51 (11727254_a_at) / RFU PIWIL2 (11732686_x_at) / Fold change /veh PIWIL2 (11732686_x_at) / RFU ORM1 (11744905_x_at) / Fold change /veh ORM1 (11744905_x_at) / RFU CCDC152 (11743942_at) / Fold change /veh CCDC152 (11743942_at) / RFU ECM1 (11717891_a_at) / Fold change /veh ECM1 (11717891_a_at) / RFU IL23R (11748794_a_at) / Fold change /veh IL23R (11748794_a_at) / RFU TNFAIP8L3 (11732012_x_at) / Fold change /veh TNFAIP8L3 (11732012_x_at) / RFU MBOAT4 (11741988_at) / Fold change /veh MBOAT4 (11741988_at) / RFU 11764193_at / Fold change /veh 11764193_at / RFU TMEM53 (11763286_at) / Fold change /veh TMEM53 (11763286_at) / RFU MAGEB2 (11727129_at) / Fold change /veh MAGEB2 (11727129_at) / RFU TMEM200A (11744735_a_at) / Fold change /veh TMEM200A (11744735_a_at) / RFU CCDC152 (11751479_a_at) / Fold change /veh CCDC152 (11751479_a_at) / RFU FAM211A (11726209_a_at) / Fold change /veh FAM211A (11726209_a_at) / RFU RGS16 (11746705_a_at) / Fold change /veh RGS16 (11746705_a_at) / RFU VCAN (11755009_s_at) / Fold change /veh VCAN (11755009_s_at) / RFU RHOB (11743442_s_at) / Fold change /veh RHOB (11743442_s_at) / RFU RGS16 (11720943_a_at) / Fold change /veh RGS16 (11720943_a_at) / RFU RGS16 (11720944_at) / Fold change /veh RGS16 (11720944_at) / RFU, VPS4B / Fold change vs veh, VPS4B / RFU, CREB1 / Fold change vs veh, CREB1 / RFU, DNAJC13 / Fold change vs veh, DNAJC13 / RFU, GNAQ / Fold change vs veh, GNAQ / RFU, CDK5R1 / Fold change vs veh, CDK5R1 / RFU, ZRANB3 / Fold change vs veh, ZRANB3 / RFU, CUL4A / Fold change vs veh, CUL4A / RFU, CCNY / Fold change vs veh, CCNY / RFU, UFL1 / Fold change vs veh, UFL1 / RFU, COG3 / Fold change vs veh, COG3 / RFU, DIAPH2 / Fold change vs veh, DIAPH2 / RFU, SKA2 / Fold change vs veh, SKA2 / RFU, AFF3 / Fold change vs veh, AFF3 / RFU, LMF1 / Fold change vs veh, LMF1 / RFU, IPO11 / Fold change vs veh, IPO11 / RFU, DFFB / Fold change vs veh, DFFB / RFU, FOXP1 / Fold change vs veh, FOXP1 / RFU, CARD8 / Fold change vs veh, CARD8 / RFU, STRN3 / Fold change vs veh, STRN3 / RFU, ADK / Fold change vs veh, ADK / RFU, RASSF2 / Fold change vs veh, RASSF2 / RFU, WIPF1 / Fold change vs veh, WIPF1 / RFU, LARP1B / Fold change vs veh, LARP1B / RFU, RASA1 / Fold change vs veh, RASA1 / RFU, RB1 / Fold change vs veh, RB1 / RFU, PPFIA1 / Fold change vs veh, PPFIA1 / RFU, MAT2A / Fold change vs veh, MAT2A / RFU, CCT5 / Fold change vs veh, CCT5 / RFU, WDR92 / Fold change vs veh, WDR92 / RFU, CUX1 / Fold change vs veh, CUX1 / RFU, TTC7A / Fold change vs veh, TTC7A / RFU, TMEM135 / Fold change vs veh, TMEM135 / RFU, DEPTOR / Fold change vs veh, DEPTOR / RFU, CPM / Fold change vs veh, CPM / RFU, DNAJB6 / Fold change vs veh, DNAJB6 / RFU, CACNA2D3 / Fold change vs veh, CACNA2D3 / RFU, DTX4 / Fold change vs veh, DTX4 / RFU, TFCP2 / Fold change vs veh, TFCP2 / RFU, GMCL1 /// GMCL1P1 / Fold change vs veh, GMCL1 /// GMCL1P1 / RFU, AEBP2 / Fold change vs veh, AEBP2 / RFU, SNHG1 /// SNORD22 /// SNORD25 /// SNORD26 /// SNORD27 /// SNORD28 /// SNORD29 /// SNORD31 / Fold change vs veh, SNHG1 /// SNORD22 /// SNORD25 /// SNORD26 /// SNORD27 /// SNORD28 /// SNORD29 /// SNORD31 / Fold change (Aza/veh), C12orf56 (ProbeSet 11735607_a_at) / Fold change (ACY-1035/veh), C12orf56 (ProbeSet 11735607_a_at) / Fold change (Aza/veh), FGFR1OP (ProbeSet 11751329_s_at) / Fold change (ACY-1035/veh), FGFR1OP (ProbeSet 11751329_s_at) / Fold change (Aza/veh), VPS36 (ProbeSet 11739960_a_at) / Fold change (ACY-1035/veh), VPS36 (ProbeSet 11739960_a_at) / RFU SYPL1 (11715823_x_at) / Fold change /veh SYPL1 (11715823_x_at) / RFU IGFBP7 (11715501_s_at) / Fold change /veh IGFBP7 (11715501_s_at) / RFU REEP3 (11722064_at) / Fold change /veh REEP3 (11722064_at) / RFU IGLL1 (11728026_x_at) / Fold change /veh IGLL1 (11728026_x_at): dose or concentration left out as unconfirmed",
  "conditions": "ProbeSet 11716931_at; LIST B",
  "data": [
    {"smiles": "Nc1ccc(-c2cccs2)cc1NC(=O)c1ccc2c(c1)cc(C1CC1)n2CCN1CCOCC1", "note": "[ACY-1035]", "values": [
      {"measurement": "Fold change vs veh, DGCR2", "value": 1.13}
    ]}
  ]
}
